Reference: patent US4902720A (priority 1988, dated 1990)
Like-named read-outs stand apart in the source and are kept apart here.

How the values were obtained:
[1] = system: RK-13, Vero cells, and WISH cells; conditions: cultures with vs without TEAC
Protocol: To determine the toxicity level of the drug, all three cell lines--RK-13, Vero cells, and WISH cells--were used. In the toxicity experiments, the effect of the drug on the uninfected cell for a range of periods of time was determined. Accordingly, cultures were incubated with and without the drug. The time of exposure was from one to seven hours. A comparison was then made between the drug treated cultures and the control cultures. After each period of incubation, the cells were washed and fresh media was added to the cells. The cell viability was then determined by dividing these cultures and having them grow into new cell cultures.

HSV-1 (McKrae strain) = conditions: 20 mg/ml
Protocol: In experiment 1K, cultures were infected with the McKrae strain of HSV-1 at a high multiplicity of infection. […] At designated times, the cultures were harvested. The supernatant fluid and the cells were kept separate to assay for viruses released in the supernatant fluid and also that present in the cells. Both supernatant fluid and the cells were frozen immediately at -85° C. These samples were then assayed for infectious particles on susceptible cells.

HSV-2 = system: HSV-2
Protocol: Female guinea pigs (obtained from Charles River, Inc.) weighing approximately 200 g were used as a model for HSV-2 skin lesions. The animals were anesthetized with 0.15 ml of Ketamine-Rompum mixture. The animals were first shaved on their back with a hair clipper and then treated with a depilatory cream (Nair). The denuded area was washed well and then dried. A tuberculin tyne was washed with ethanol and air dried.
Two methods were tried for infecting the animals with the virus. In one, a drop of HSV-2 suspension was placed on the skin and the skin was punctured with the tyne. In the second method, the tyne was dipped in the virus suspension before puncturing the skin.
In the first experiment, each of 3 guinea pigs was infected on three areas of their backs. At 3 days post infection, treatment was begun on one side of each animal, leaving the other side untreated as a control.
The animals were examined daily for vesicles (V), crust (C) and for erythema (R) alone.
In the next experiment, 6 guinea pigs were infected in the same manner as the initial 3 guinea pigs. Treatment was begun 12-16 hours post infection. […] Lesions showing an erythematous base with either a blister or a crust on top were considered to be HSV specific. […] Both the control animals and treated animals were carefully read in the same manner.

HSV-1 (F strain) = conditions: for % plaque inhibition: drug added after inoculation; for appearance of cell layer / % plaque inhibition A: Exp. 1D; for appearance of cell layer: after virus adsorption, thin = attached but monolayer not confluent; for % plaque inhibition A: drug added after virus adsorption

**Q.** How did the “rate of growth vs cultures without TEAC” value [1] turn out when CC[N+](CC)(CC)CC.[Cl-] [TEAC, tetraethylammonium chloride] was run?
**A.** no difference in the rate of growth

**Q.** What about the “virus yield, supernatant” value (HSV-1 (McKrae strain); 6 hours P.I., dilution 10^-1, control 3) of the same compound?
**A.** 0 PFU/m

**Q.** What about the “virus yield, cell” value (HSV-1 (McKrae strain); 6 hours P.I., dilution 10^-1, control 7) of the same compound?
**A.** 2 PFU/m

**Q.** What about the “virus yield, supernatant” value (HSV-1 (McKrae strain); 6 hours P.I., dilution 10^-2, control 1) of the same compound?
**A.** 0 PFU/m

**Q.** What about the “virus yield, cell” value (HSV-1 (McKrae strain); 6 hours P.I., dilution 10^-2, control 7) of the same compound?
**A.** 5 PFU/m

**Q.** And the “virus yield, supernatant” value (HSV-1 (McKrae strain); 6 hours P.I., dilution 10^-3, control 0)?
**A.** 0 PFU/m

**Q.** And the “virus yield, cell” value (HSV-1 (McKrae strain); 6 hours P.I., undiluted (Und.), control 16)?
**A.** 12 PFU/m

**Q.** And the “virus yield, cell” value (HSV-1 (McKrae strain); 10 hours P.I., dilution 10^-1, control 12)?
**A.** 3 PFU/m

**Q.** And the “virus yield, supernatant” value (HSV-1 (McKrae strain); 10 hours P.I., dilution 10^-1, control 22)?
**A.** 0 PFU/m

**Q.** What about the “virus yield, cell” value (HSV-1 (McKrae strain); 10 hours P.I., dilution 10^-2, control 2) of the same compound?
**A.** 0 PFU/m

**Q.** And the “virus yield, supernatant” value (HSV-1 (McKrae strain); 10 hours P.I., dilution 10^-2, control 7)?
**A.** 0 PFU/m

**Q.** What about the “virus yield, supernatant” value (HSV-1 (McKrae strain); 10 hours P.I., dilution 10^-3, control 0) of the same compound?
**A.** 0 PFU/m

**Q.** What about the “virus yield, cell” value (HSV-1 (McKrae strain); 10 hours P.I., undiluted (Und.), control 48) of the same compound?
**A.** 13 PFU/m

**Q.** And the “virus yield, supernatant” value (HSV-1 (McKrae strain); 20 hours P.I., dilution 10^-1, control 91)?
**A.** 0 PFU/m

**Q.** And the “virus yield, cell” value (HSV-1 (McKrae strain); 20 hours P.I., dilution 10^-1, control W.O. (wiped out))?
**A.** 5 PFU/m

**Q.** And the “virus yield, supernatant” value (HSV-1 (McKrae strain); 20 hours P.I., dilution 10^-2, control 10)?
**A.** 0 PFU/m

**Q.** What about the “virus yield, cell” value (HSV-1 (McKrae strain); 20 hours P.I., dilution 10^-2, control W.O. (wiped out)) of the same compound?
**A.** 0 PFU/m

**Q.** And the “virus yield, supernatant” value (HSV-1 (McKrae strain); 20 hours P.I., dilution 10^-3, control 0)?
**A.** 0 PFU/m

**Q.** And the “virus yield, cell” value (HSV-1 (McKrae strain); 20 hours P.I., undiluted (Und.), control W.O. (wiped out))?
**A.** 42 PFU/m

**Q.** What about the “virus yield, supernatant” value (HSV-1 (McKrae strain); 24 hours P.I., dilution 10^-1, control 107) of the same compound?
**A.** 0 PFU/m

**Q.** What about the “virus yield, cell” value (HSV-1 (McKrae strain); 24 hours P.I., dilution 10^-1, control W.O. (wiped out)) of the same compound?
**A.** 32 PFU/m

**Q.** And the “virus yield, supernatant” value (HSV-1 (McKrae strain); 24 hours P.I., dilution 10^-2, control 18)?
**A.** 0 PFU/m

**Q.** What about the “virus yield, cell” value (HSV-1 (McKrae strain); 24 hours P.I., dilution 10^-2, control W.O. (wiped out)) of the same compound?
**A.** 10 PFU/m

**Q.** What about the “virus yield, supernatant” value (HSV-1 (McKrae strain); 24 hours P.I., dilution 10^-3, control 2) of the same compound?
**A.** 0 PFU/m

**Q.** And the “virus yield, cell” value (HSV-1 (McKrae strain); 24 hours P.I., undiluted (Und.), control W.O. (wiped out))?
**A.** 58 PFU/m

**Q.** And the “virus yield, supernatant” value (HSV-1 (McKrae strain); 28 hours P.I., dilution 10^-1, control 190)?
**A.** 0 PFU/m

**Q.** And the “virus yield, cell” value (HSV-1 (McKrae strain); 28 hours P.I., dilution 10^-1, control W.O.)?
**A.** TMTC

**Q.** What about the “virus yield, supernatant” value (HSV-1 (McKrae strain); 28 hours P.I., dilution 10^-2, control 58) of the same compound?
**A.** 0 PFU/m

**Q.** What about the “virus yield, cell” value (HSV-1 (McKrae strain); 28 hours P.I., dilution 10^-2, control W.O. (wiped out)) of the same compound?
**A.** 15 PFU/m

**Q.** And the “virus yield, supernatant” value (HSV-1 (McKrae strain); 28 hours P.I., dilution 10^-3, control 7)?
**A.** 0 PFU/m

**Q.** What about the “virus yield, cell” value (HSV-1 (McKrae strain); 28 hours P.I., undiluted (Und.), control W.O.) of the same compound?
**A.** W.O.

**Q.** What about the “number and size of lesions” value (HSV-2; TEAC from 12-16 hours P.I.) of the same compound?
**A.** significant reduction in the number of lesions, but also in their size

**Q.** What about the “rupture and crusting of lesions” value (HSV-2; TEAC from 12-16 hours P.I.) of the same compound?
**A.** the lesions neither ruptured nor crusted

**Q.** And the “number and appearance of lesions, treated vs control” value (HSV-2; TEAC ointment from 12-16 hours P.I.)?
**A.** marked difference between the two groups, not only in the number of lesions but also in their appearance

**Q.** And the “Percent Reduction of lesions” value (HSV-2; TEAC ointment from 12-16 hours P.I., day 3 P.I.)?
**A.** 21.0%

**Q.** What about the “# of lesions” value (HSV-2; TEAC ointment from 12-16 hours P.I., day 3 P.I., control 19) of the same compound?
**A.** 15 lesions

**Q.** What about the “Percent Reduction of lesions” value (HSV-2; TEAC ointment from 12-16 hours P.I., day 4 P.I.) of the same compound?
**A.** 27.5%

**Q.** And the “# of lesions” value (HSV-2; TEAC ointment from 12-16 hours P.I., day 4 P.I., control 40)?
**A.** 29 lesions

**Q.** What about the “Percent Reduction of lesions” value (HSV-2; TEAC ointment from 12-16 hours P.I., day 5 P.I.) of the same compound?
**A.** 58.5%

**Q.** And the “# of lesions” value (HSV-2; TEAC ointment from 12-16 hours P.I., day 5 P.I., control 41)?
**A.** 17 lesions

**Q.** What about the “Percent Reduction of lesions” value (HSV-2; TEAC ointment from 12-16 hours P.I., day 6 P.I.) of the same compound?
**A.** 58.3%

**Q.** What about the “# of lesions” value (HSV-2; TEAC ointment from 12-16 hours P.I., day 6 P.I., control 36) of the same compound?
**A.** 15 lesions

**Q.** What about the “dermatitis (rash)” value (HSV-2; day 4 after treatment, TEAC or its vehicle or both) of the same compound?
**A.** a rash appeared

**Q.** And the antiviral activity (HSV-1 (F strain); Exp. 1C, all dilutions tested)?
**A.** Antiviral activity was seen in all dilutions tested

**Q.** What about the “% plaque inhibition” value (HSV-1 (F strain); Exp. 1C, 0.62 mg/culture) of the same compound?
**A.** 30%

**Q.** And the “% plaque inhibition” value (HSV-1 (F strain); Exp. 1C, 1.25 mg/culture)?
**A.** 39%

**Q.** And the “% plaque inhibition” value (HSV-1 (F strain); Exp. 1C, 2.50 mg/culture)?
**A.** 46%

**Q.** What about the “% plaque inhibition” value (HSV-1 (F strain); Exp. 1C, 5.00 mg/culture) of the same compound?
**A.** 45%

**Q.** And the “% plaque inhibition” value (HSV-1 (F strain); Exp. 1C, 10.00 mg/culture)?
**A.** 56%

**Q.** And the “appearance of cell layer” value (HSV-1 (F strain); 25 mg/culture)?
**A.** thin

**Q.** And the “appearance of cell layer” value (HSV-1 (F strain); 50 mg/culture)?
**A.** thin

**Q.** And the “% plaque inhibition A” value (HSV-1 (F strain); 6.2 mg/culture)?
**A.** 20%

**Q.** What about the “% plaque inhibition A” value (HSV-1 (F strain); 12.5 mg/culture) of the same compound?
**A.** 62%

**Q.** And the “% plaque inhibition A” value (HSV-1 (F strain); 25.0 mg/culture, cell layer thin)?
**A.** 100%

**Q.** And the “% plaque inhibition A” value (HSV-1 (F strain); 50.0 mg/culture, cell layer thin)?
**A.** 100%

**Q.** What about the sciatic pain (HSV type 2; Patient A, 2.8 cc (100 mg/cc), first infusion, immediately after) of the same compound?
**A.** cessation of sciatic pain

**Q.** And the pain or lesions (HSV type 2; Patient A, about five weeks after third infusion 3.4 cc)?
**A.** no further pain or lesions

**Q.** What about the “time without lesions or pain” value (HSV type 2; Patient A, after first infusion) of the same compound?
**A.** 52 to 53 days

**Q.** What about the “time until spots were gone” value (HSV type 2; Patient A, after third infusion) of the same compound?
**A.** 24 h

**Q.** What about the symptoms (HSV type 2; Patient A, approximately three weeks after first infusion) of the same compound?
**A.** asymptomatic

**Q.** What about the “lesions or pain at last contact” value (HSV type 2; Patient A, eighteen months after the initial exam) of the same compound?
**A.** no further lesions or pain

**Q.** And the “time to disappearance of vesicles” value (HSV type 2; Patient A, recurrence after first infusion)?
**A.** two to three

**Q.** And the sciatic nerve pain (HSV type 2; Patient A, second infusion 3.2 cc)?
**A.** sciatic nerve pain disappeared during the infusion

**Q.** What about the clearance (HSV type 2; Patient E, a week after second infusion, 2 pinpoint lesions remaining) of the same compound?
**A.** 99%

**Q.** And the new pinpoint lesions (HSV type 2; Patient E, after third infusion)?
**A.** 5-6 pinpoint lesions

**Q.** What about the lesions (HSV type 2; Patient E, third infusion 5 cc, 5 days later) of the same compound?
**A.** all lesions had cleared up

**Q.** What about the general condition (HSV type 2; Patient F, about 3 weeks after third infusion) of the same compound?
**A.** completely cleared up

**Q.** What about the lesion (HSV type 2; Patient F, first infusion 3.8 cc, next day) of the same compound?
**A.** improved

**Q.** What about the “time to clearing of lesion” value (HSV type 2; Patient F, second infusion 4.5 cc) of the same compound?
**A.** 48 h

**Q.** What about the “time to clearing of lesions” value (HSV type 2; Patient F, third infusion 4.0 cc) of the same compound?
**A.** ≤ 4 days

**Q.** And the “time until lesions were gone” value (HSV type 2; Patient G, first infusion 4.3 cc)?
**A.** ≤ 48 h

**Q.** What about the long term outcome (HSV type 2; Patient J, 12 months later, ointment) of the same compound?
**A.** the problem has resolved itself completely

**Q.** And the “severity of subsequent attacks” value (HSV type 2; Patient K, after second infusion)?
**A.** milder severity

**Q.** What about the anticipated massive attack (HSV type 2; Patient K, second infusion 3.4 cc, six weeks later) of the same compound?
**A.** the attack had not occurred

**Q.** And the crusting (HSV type 1; Patient L, 2.9 cc (5.5 mg/kg), 7th day after treatment)?
**A.** the crusting had all disappeared

**Q.** What about the “time to clearing of lesions” value (HSV type 1; Patient M, 1% TEAC in hydrophillic ointment base, topical, five days later) of the same compound?
**A.** cleared in a shorter time period than usual

**Q.** And the lesion (HSV type 1; Patient M, ointment resumed two months later, after three days)?
**A.** the lesion had not spread and had now crusted
